# In patent US20050158264A1, “Sympathetic nerve-stimulating fragrant compositions” (SHISEIDO COMPANY, LTD., priority 2000, published 2005):
# Counter-ions that a name gives are not always drawn.
# System: sympathetic nerves
# Test: Measurement of sympathetic nerve activity by systolic blood pressure fluctuation analysis (FLUCLET) while smelling fragrance
# Type: in vivo
# Settings: subjects smelling fragrance 3 minutes vs 3 minutes without fragrance, FIG. 1-4
# Description: Cardiac rate intervals (heartbeat intervals) and blood pressure changes (fluctuations) are complex even during resting periods, and are governed by several systems including the sympathetic and parasympathetic nervous systems. It is known that frequency analysis of heartbeat intervals and blood pressure fluctuations can used to calculate the activity of each of these systems. The high-frequency component of cardiac rate fluctuation indicates parasympathetic nerve activity while the low-frequency component indicates the combined activity of the sympathetic and parasympathetic nervous systems, and the low-frequency component of blood pressure fluctuation indicates sympathetic nerve activity (from material by Dainippon Pharmaceutical Co.). Sympathetic nerve activity was measured by analysis of systolic blood pressure fluctuation using an autonomic nervous system activity analysis system (FLUCLET, product of Dainippon Pharmaceutical Co.). Subjects were allowed to rest for 5 minutes in a thermostatic room at room temperature (24° C.), the blood pressure value was measured on the upper arm and used to correct the blood pressure value at the wrist, and then the wrist blood pressure was continuously measured thereafter. Cotton was placed under the nostrils at the start of measurement, the blood pressure was measured for 3 minutes without fragrant substance, and then the nose cotton was impregnated with fragrant substance and the blood pressure was measured for 3 minutes.
row,Compound,effect of fragrance on relative sympathetic nerve activity (in words)
1,C=C(C)[C@H]1CC=C(C)CC1 [limonene],increased effect of sympathetic nerve activity
2,pinene,increased effect of sympathetic nerve activity
3,"CCOC(=O)CC(O)(CC(=O)OCC)C(=O)OCC [TEC, triethyl citrate, reference compound]",no change
4,C=CC(=C)CCC=C(C)C [myrcene],increased effect of sympathetic nerve activity
5,O=C(OCc1ccccc1)c1ccccc1 [benzyl benzoate],increased effect of sympathetic nerve activity

# System: uncoupling protein-3
# Test: not given
# Settings: 70 mg subcutaneous tissue from 6-week-old rats; caffeine 1 mM, noradrenaline 0.5 μg/ml; FIG. 6
row,Compound,expression of uncoupling protein-3
1,Cn1c(=O)c2c(ncn2C)n(C)c1=O [caffeine],increased expression
